# According to ChEMBL document CHEMBL1201862, “PubChem BioAssay data set” (2004):
#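 Compound exposure: 48 hours, 5 concentrations, 96-well plates. The concentration for 50% growth inhibition is given as GI50.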 Calls of active or inactive are those of the source. Cut-off read from the data, not from the text of the source: active = GI50 up to about 1.1 µM and inactive = higher. Where a SMILES comes first, the peptide text is derived from it. The star is where a group is joined. Cbz = O=C(OCc1ccccc1)*; Boc = CC(C)(C)OC(=O)*; OSu = O=C1CCC(=O)N1O*; Bn = c1ccc(C*)cc1
# Assays:
# Test in all cases: NCI-60 cell line screen, 48 h
# OVCAR-3 = test system: OVCAR-3
# 786-0 = test system: 786-0
# SNB-19 = test system: SNB-19
# SK-MEL-2 = test system: SK-MEL-2
# T47D = test system: T47D
# HOP-62 = test system: HOP-62
# HCT-15 = test system: HCT-15
# UO-31 = test system: UO-31
# IGROV-1 = test system: IGROV-1
# SW-620 = test system: SW-620
# SK-MEL-28 = test system: SK-MEL-28
# Malme-3M = test system: Malme-3M
# MCF7 = test system: MCF7
# MOLT-4 = test system: MOLT-4
# SF-268 = test system: SF-268
# HT-29 = test system: HT-29
# MDA-MB-231 = test system: MDA-MB-231
# HCC 2998 = test system: HCC 2998
# SK-OV-3 = test system: SK-OV-3
Structure (SMILES),GI50 (OVCAR-3),GI50 (786-0),GI50 (SNB-19),GI50 (SK-MEL-2),GI50 (T47D),GI50 (HOP-62),GI50 (HCT-15) [µM],GI50 (UO-31),GI50 (IGROV-1),GI50 (SW-620),GI50 (SK-MEL-28),GI50 (Malme-3M),GI50 (MCF7),GI50 (MOLT-4),GI50 (SF-268),GI50 (HT-29),GI50 (MDA-MB-231),GI50 (HCC 2998),GI50 (SK-OV-3)
CC(C)=NN/C(=N\c1ccc(Cl)cc1)NS(=O)(=O)c1ccc(C)cc1,31.1 µM (inactive),62.4 µM (inactive),> 100 µM (inactive),73.1 µM (inactive),23.8 µM (inactive),69 µM (inactive),> 100,> 100 µM (inactive),77.4 µM (inactive),> 100 µM (inactive),85.5 µM (inactive),61.2 µM (inactive),58.5 µM (inactive),41.5 µM (inactive),60 µM (inactive),> 100 µM (inactive),73.1 µM (inactive),,
O=C(N/N=C/c1ccco1)c1cc(I)cc(I)c1O,,15 µM (inactive),32.2 µM (inactive),5.22 µM (inactive),26 µM (inactive),,19.7,24 µM (inactive),15.8 µM (inactive),22.2 µM (inactive),28.2 µM (inactive),22.2 µM (inactive),24.2 µM (inactive),26.3 µM (inactive),> 50 µM (inactive),6.41 µM (inactive),,,
CC(NC(=O)OC(C)(C)C)C(=O)NC(Cc1ccccc1)C(=O)NCC(=O)Oc1c(Cl)c(Cl)c(Cl)c(Cl)c1Cl (stereo not given),,21.2 µM (inactive),29.3 µM (inactive),20.7 µM (inactive),,18.7 µM (inactive),> 10,14.2 µM (inactive),22.8 µM (inactive),20.1 µM (inactive),20.7 µM (inactive),20.7 µM (inactive),21.9 µM (inactive),23.2 µM (inactive),,23.7 µM (inactive),16.6 µM (inactive),15.3 µM (inactive),
[N-]=[N+]=NCN1C(=O)C2C3C=CC(C2C1=O)C1C2C(=O)N(CN=[N+]=[N-])C(=O)C2C31 (stereo not given),> 100 µM (inactive),> 100 µM (inactive),> 100 µM (inactive),> 100 µM (inactive),> 100 µM (inactive),> 100 µM (inactive),> 100,> 100 µM (inactive),> 100 µM (inactive),> 100 µM (inactive),> 100 µM (inactive),,> 100 µM (inactive),,> 100 µM (inactive),> 100 µM (inactive),,11.7 µM (inactive),
Cc1nn2c(C(=O)N/N=C/c3ccccc3O)c(C)nc2s1,3.09 µM (inactive),47.8 µM (inactive),> 100 µM (inactive),,61.5 µM (inactive),> 100 µM (inactive),41.9,> 100 µM (inactive),> 100 µM (inactive),> 100 µM (inactive),> 100 µM (inactive),> 100 µM (inactive),30.8 µM (inactive),51.9 µM (inactive),> 100 µM (inactive),> 100 µM (inactive),> 100 µM (inactive),55.1 µM (inactive),
ClC1=C(Cl)C2OC3C=CCC3OC2C(Cl)=C1Cl (stereo not given),> 100 µM (inactive),> 100 µM (inactive),,18.8 µM (inactive),2.47 µM (inactive),> 100 µM (inactive),32.1,> 100 µM (inactive),> 100 µM (inactive),41.2 µM (inactive),> 100 µM (inactive),,0.429 µM (active),35.3 µM (inactive),73.5 µM (inactive),21.3 µM (inactive),> 100 µM (inactive),29.4 µM (inactive),> 100 µM (inactive)
COc1cccc(-c2nc(-c3cnccn3)n(C3OC(CO)C(O)C3O)n2)c1 (stereo not given),> 100 µM (inactive),> 100 µM (inactive),> 100 µM (inactive),,> 100 µM (inactive),> 100 µM (inactive),> 100,> 100 µM (inactive),> 100 µM (inactive),> 100 µM (inactive),> 100 µM (inactive),,> 100 µM (inactive),> 100 µM (inactive),> 100 µM (inactive),> 100 µM (inactive),> 100 µM (inactive),> 100 µM (inactive),> 100 µM (inactive)
COC(=O)C1=C(C(=O)OC)SC(=C2SC3=C(SC(=C4SCCS4)S3)S2)S1,,> 100 µM (inactive),> 100 µM (inactive),> 100 µM (inactive),> 100 µM (inactive),> 100 µM (inactive),,> 100 µM (inactive),> 100 µM (inactive),> 100 µM (inactive),> 100 µM (inactive),> 100 µM (inactive),> 100 µM (inactive),> 100 µM (inactive),> 100 µM (inactive),> 100 µM (inactive),> 100 µM (inactive),,> 100 µM (inactive)
CCN(CC)C(=S)N/N=C(/c1ccccc1)c1ccccn1,0.0288 µM (active),0.145 µM (active),2.84 µM (inactive),0.711 µM (active),,0.292 µM (active),0.126,0.459 µM (active),0.195 µM (active),0.121 µM (active),0.767 µM (active),0.929 µM (active),0.0867 µM (active),< 0.0507 µM (active),0.0256 µM (active),< 0.0246 µM (active),0.0265 µM (active),2.15 µM (inactive),0.673 µM (active)
NNC(=O)c1cc(=O)[nH][nH]1,,> 100 µM (inactive),> 100 µM (inactive),> 100 µM (inactive),> 100 µM (inactive),,> 100,> 100 µM (inactive),> 100 µM (inactive),> 100 µM (inactive),,> 100 µM (inactive),> 100 µM (inactive),> 100 µM (inactive),> 100 µM (inactive),> 100 µM (inactive),> 100 µM (inactive),,> 100 µM (inactive)
CN1CCN(/C(N)=C(\C#N)C(=O)Nc2ccc(Cl)cc2)CC1,41.7 µM (inactive),95.5 µM (inactive),> 100 µM (inactive),32.7 µM (inactive),> 100 µM (inactive),> 100 µM (inactive),57.9,55.1 µM (inactive),99.1 µM (inactive),> 100 µM (inactive),46.6 µM (inactive),,68.4 µM (inactive),54.8 µM (inactive),,> 100 µM (inactive),,59.6 µM (inactive),> 100 µM (inactive)
O=S(=O)(O)c1cc(/N=N/c2c(O)ccc3ccccc23)c2c(S(=O)(=O)O)cccc2c1,> 100 µM (inactive),> 100 µM (inactive),> 100 µM (inactive),> 100 µM (inactive),,> 100 µM (inactive),> 100,> 100 µM (inactive),> 100 µM (inactive),> 100 µM (inactive),> 100 µM (inactive),> 100 µM (inactive),> 100 µM (inactive),> 100 µM (inactive),> 100 µM (inactive),> 100 µM (inactive),> 100 µM (inactive),> 100 µM (inactive),> 100 µM (inactive)
CNC(=O)NS(=O)(=O)c1ccc(C)cc1.NS(=O)O,,> 100 µM (inactive),> 100 µM (inactive),> 100 µM (inactive),> 100 µM (inactive),> 100 µM (inactive),> 100,> 100 µM (inactive),> 100 µM (inactive),> 100 µM (inactive),> 100 µM (inactive),> 100 µM (inactive),> 100 µM (inactive),> 100 µM (inactive),> 100 µM (inactive),> 100 µM (inactive),> 100 µM (inactive),,> 100 µM (inactive)
CC1CCCC2(CC[N+](C)(CCC[N+](C)(C)C)CC2)C1 (stereo not given),> 100 µM (inactive),> 100 µM (inactive),> 100 µM (inactive),> 100 µM (inactive),> 100 µM (inactive),> 100 µM (inactive),> 100,> 100 µM (inactive),> 100 µM (inactive),> 100 µM (inactive),> 100 µM (inactive),> 100 µM (inactive),> 100 µM (inactive),> 100 µM (inactive),> 100 µM (inactive),> 100 µM (inactive),> 100 µM (inactive),,> 100 µM (inactive)
Nc1ccc2c(c1)Nc1c3ccccc3nc3cccc-2c13,1.72 µM (inactive),1.21 µM (inactive),1.64 µM (inactive),1.73 µM (inactive),,1.3 µM (inactive),,1.72 µM (inactive),1.25 µM (inactive),0.585 µM (active),1.99 µM (inactive),1.85 µM (inactive),0.794 µM (active),0.391 µM (active),1.73 µM (inactive),1.18 µM (inactive),1.35 µM (inactive),1.2 µM (inactive),1.61 µM (inactive)
CC(C)(C)OC(=O)NC(Cc1ccc(OCc2ccccc2)cc1)C(=O)NC(CCCCNC(=O)OCc1ccccc1)C(=O)ON1C(=O)CCC1=O (stereo not given) (Boc-Tyr(Bn)-Lys(Cbz)-OSu; configuration not given here),,18.9 µM (inactive),16.7 µM (inactive),17.4 µM (inactive),,19.5 µM (inactive),16.7,21.6 µM (inactive),16.8 µM (inactive),20.7 µM (inactive),15.8 µM (inactive),23.1 µM (inactive),19.8 µM (inactive),20 µM (inactive),,23.5 µM (inactive),22.3 µM (inactive),16.5 µM (inactive),
O=C(/C=C/c1ccc(Oc2cc(C(=O)/C=C/c3ccc(O)cc3)c(O)cc2O)cc1)c1ccc(O)cc1O [RHUSCHALCONE II],3.42 µM (inactive),3.59 µM (inactive),6.89 µM (inactive),7.6 µM (inactive),5.93 µM (inactive),5.38 µM (inactive),5.97,6.3 µM (inactive),3.38 µM (inactive),4.82 µM (inactive),2.52 µM (inactive),10.6 µM (inactive),4.26 µM (inactive),4.09 µM (inactive),4.83 µM (inactive),1.92 µM (inactive),5.08 µM (inactive),,3.17 µM (inactive)
